According to PMC9334274, “A unique class of Zn^2+-binding serine-based PBPs underlies cephalosporin resistance and sporogenesis in Clostridioides difficile” (Nature Communications, 2022):
In brackets after ≈: the same amount, converted by molar mass. Several values for one entry are separate records, joined by “and”; a condition that tells them apart may be missing. Identical values can stand only once. Entries after “also recorded” stand apart in the source; their conditions may differ. Like-named read-outs stand apart in the source and are kept apart here.

How the values were obtained:
C. difficile PBP3 = type: binding, Clostridioides difficile R20291; details: for PBP3 % inhibiton: 25 µM
Ldt2 = experiment: Nitrocefin inhibition assay, Ldt2; type: biochemical, Clostridioides difficile R20291; details: for Ldt2 % inhibiton: β-lactam at 25 uM, nitrocefin hydrolysis, two independent experiments, individual values; for Nitrcoefin hydrolysis vs inhibitor (reaction curve reading): Idt2, representative curve
Experimental: Reactions were performed in a 96-well polystyrene plate with a final volume of 60 μL at 37 °C in 20 mM Tris pH 7, 200 mM NaCl. […] Protein was then added to the well for a final concentration of 1 µM and incubated for 15 min at 37 °C. 1 µL of nitrocefin (Millipore Sigma) was then added to each well for a final concentration of 20 µM, and reaction progress was monitored using a BioTek Cytation 5 plate reader (BioTek Instruments) at 488 nm and 37 °C for 1 h. Reaction rates were normalized to the control (no inhibitor) for % inhibition values. Assays were performed in duplicate and mean % inhibition values was calculated.

[1] = tested on: C. difficile strain R20291; experiment: Minimum inhibitory concentration (MIC) determination; details: for MIC: Clostridioides difficile, R20291, 24 h
Ldt3 = type: biochemical, Clostridioides difficile R20291; details: for Ldt3 % inhibiton / inhibition of Ldt3 (in words): 25 µM

## CC1(C)S[C@@H]2[C@H](NC(=O)[C@H](N)c3ccccc3)C(=O)N2[C@H]1C(=O)O [ampicillin]
C. difficile PBP3
  PBP3 % inhibiton: 92.7496% and 89.9467% and 91.5944%
Ldt2; listed as AMP, 25 µM
  Ldt2 % inhibiton: 1.643% and 4.064%
[1]
  MIC (X): 2
  MIC: 2 µg/mL (≈ 5.72 µM)

## C[C@H]1[C@H](NC(=O)/C(=N\OC(C)(C)C(=O)O)c2csc(N)n2)C(=O)N1S(=O)(=O)O [aztreonam]
[1]
  MIC: 256 µg/mL (≈ 588 µM)

## CO/N=C(\C(=O)N[C@@H]1C(=O)N2C(C(=O)O)=C(/C=C\c3scnc3C)CS[C@H]12)c1csc(N)n1 [cefditoren]
C. difficile PBP3
  PBP3 % inhibiton: 82.5587% and 73.9018% and 78.609%
Ldt2; listed as CDN, 25 µM
  Ldt2 % inhibiton: 13.9657% and 18.7883%
Ldt3
  Ldt3 % inhibiton: 72.482% and 72.4793%
  inhibition of Ldt3 (in words): best
[1]
  MIC: 16 µg/mL (≈ 31.6 µM)

## CO/N=C(\C(=O)N[C@@H]1C(=O)N2C(C(=O)O)=C(COC(C)=O)CS[C@H]12)c1csc(N)n1 [cefotaxime]
C. difficile PBP3
  PBP3 % inhibiton: 100.738% and 94.6733% and 99.7428%
Ldt2; listed as CTX, 25 µM
  Ldt2 % inhibiton: 12.8454% and 16.2577%
Ldt3
  Ldt3 % inhibiton: 7.194% and 11.4876%
[1]
  MIC (X): 256
  MIC: 256 µg/mL (≈ 562 µM)

## CC(C)(O/N=C(\C(=O)N[C@@H]1C(=O)N2C(C(=O)[O-])=C(C[n+]3ccccc3)CS[C@H]12)c1csc(N)n1)C(=O)O [ceftazidime]
C. difficile PBP3
  PBP3 % inhibiton: 100% and 96.9383%
[1]
  MIC: 256 µg/mL (≈ 468 µM)

## Nc1nc(/C(=N/O)C(=O)N[C@@H]2C(=O)N3C(C(=O)O)=C(/C=C4\CCN([C@@H]5CCNC5)C4=O)CS[C@H]23)ns1 [ceftobiprole]
C. difficile PBP3
  PBP3 % inhibiton: 100% and 96.748%
Ldt2; listed as BPR, 25 µM
  Ldt2 % inhibiton: 0% and 4.7546%
Ldt3
  Ldt3 % inhibiton: 8.0036% and 4.298%
[1]
  MIC: 2 µg/mL (≈ 3.74 µM)

## CO/N=C(\C(=O)N[C@@H]1C(=O)N2C(C(=O)O)=C(CSc3nc(=O)c(=O)[nH]n3C)CS[C@H]12)c1csc(N)n1 [ceftriaxone]
C. difficile PBP3
  PBP3 % inhibiton: 101.93% and 95.7776% and 100%
[1]
  MIC: 32 µg/mL (≈ 57.7 µM)

## CO/N=C(\C(=O)N[C@@H]1C(=O)N2C(C(=O)O)=C(COC(N)=O)CS[C@H]12)c1ccco1 [cefuroxime]
C. difficile PBP3
  PBP3 % inhibiton: 99.6269% and 93.7981% and 97.4091%
[1]
  MIC: 128 µg/mL (≈ 302 µM)

## CC1=C(C(=O)O)N2C(=O)[C@@H](NC(=O)[C@H](N)c3ccccc3)[C@H]2SC1 [cephalexin]
C. difficile PBP3
  inhibition of PBP3 (in words): little to no biochemical inhibition; also recorded: no detectable inhibition
Ldt2; 25 µM
  inhibition of Ldt2 (in words): failing to inhibit
Ldt2
  Ldt2 % inhibiton: 0%
Ldt3
  Ldt3 % inhibiton: 0%
  inhibition of Ldt3 (in words): failing to inhibit
[1]
  MIC: 4 µg/mL (≈ 11.5 µM)

## CC(=O)OCC1=C(C(=O)O)N2C(=O)[C@@H](NC(=O)[C@H](N)c3ccccc3)[C@H]2SC1 [cephaloglycin]
C. difficile PBP3
  PBP3 % inhibiton: 95.4184% and 89.9822% and 93.12%
Ldt2
  Ldt2 % inhibiton: 0%
Ldt3
  Ldt3 % inhibiton: 9.353% and 13.9669%
[1]
  MIC: 256 µg/mL (≈ 631 µM)

## CC(=O)OCC1=C(C(=O)O)N2C(=O)[C@@H](NC(=O)Cc3cccs3)[C@H]2SC1 [cephalothin]
C. difficile PBP3
  PBP3 % inhibiton: 97.9928% and 94.8412% and 96.842%
Ldt2
  Ldt2 % inhibiton: 0%
Ldt3
  Ldt3 % inhibiton: 13.1295% and 19.9174%
[1]
  MIC: 64 µg/mL (≈ 161 µM)

## Cc1onc(-c2ccccc2Cl)c1C(=O)N[C@@H]1C(=O)N2[C@@H]1SC(C)(C)[C@@H]2C(=O)O [cloxacillin]
C. difficile PBP3
  PBP3 % inhibiton: 82.7754% and 83.7053% and 84.4216%
Ldt2; time 0 s
  Nitrcoefin hydrolysis vs inhibitor (reaction curve reading): 0.044
Ldt2; time 300 s
  Nitrcoefin hydrolysis vs inhibitor (reaction curve reading): 0.046
Ldt2; time 600 s
  Nitrcoefin hydrolysis vs inhibitor (reaction curve reading): 0.048
Ldt2; time 900 s
  Nitrcoefin hydrolysis vs inhibitor (reaction curve reading): 0.05
Ldt2; time 1200 s
  Nitrcoefin hydrolysis vs inhibitor (reaction curve reading): 0.051
Ldt2; time 1500 s
  Nitrcoefin hydrolysis vs inhibitor (reaction curve reading): 0.053
Ldt2; time 1800 s
  Nitrcoefin hydrolysis vs inhibitor (reaction curve reading): 0.054
Ldt2; time 2100 s
  Nitrcoefin hydrolysis vs inhibitor (reaction curve reading): 0.056
Ldt2; time 2400 s
  Nitrcoefin hydrolysis vs inhibitor (reaction curve reading): 0.057
Ldt2; listed as ClX, 25 µM
  Ldt2 % inhibiton: 15.534% and 20.6288%
Ldt3
  Ldt3 % inhibiton: 89.2086% and 94.2975%
  inhibition of Ldt3 (in words): best
Ldt3; time 0 s
  Nitrcoefin hydrolysis vs inhibitor (reaction curve reading): 0.044
Ldt3; time 300 s
  Nitrcoefin hydrolysis vs inhibitor (reaction curve reading): 0.045
Ldt3; time 600 s
  Nitrcoefin hydrolysis vs inhibitor (reaction curve reading): 0.045
Ldt3; time 900 s
  Nitrcoefin hydrolysis vs inhibitor (reaction curve reading): 0.046
Ldt3; time 1200 s
  Nitrcoefin hydrolysis vs inhibitor (reaction curve reading): 0.046
Ldt3; time 1500 s
  Nitrcoefin hydrolysis vs inhibitor (reaction curve reading): 0.046
Ldt3; time 1800 s
  Nitrcoefin hydrolysis vs inhibitor (reaction curve reading): 0.046
Ldt3; time 2100 s
  Nitrcoefin hydrolysis vs inhibitor (reaction curve reading): 0.046
Ldt3; time 2400 s
  Nitrcoefin hydrolysis vs inhibitor (reaction curve reading): 0.046
[1]
  MIC: 16 µg/mL (≈ 36.7 µM)

## C[C@@H](O)[C@H]1C(=O)N2C(C(=O)O)=C(S[C@@H]3CN[C@H](CNS(N)(=O)=O)C3)[C@H](C)[C@H]12 [doripenem]
C. difficile PBP3
  PBP3 % inhibiton: 95.9747% and 95.7759% and 97.3818%
Ldt2; 25 µM
  inhibition of Ldt2 (in words): best inhibitors of Ldt2
Ldt2; time 0 s
  Nitrcoefin hydrolysis vs inhibitor (reaction curve reading): 0.043
Ldt2; time 300 s
  Nitrcoefin hydrolysis vs inhibitor (reaction curve reading): 0.044
Ldt2; time 600 s
  Nitrcoefin hydrolysis vs inhibitor (reaction curve reading): 0.045
Ldt2; time 900 s
  Nitrcoefin hydrolysis vs inhibitor (reaction curve reading): 0.045
Ldt2; time 1200 s
  Nitrcoefin hydrolysis vs inhibitor (reaction curve reading): 0.045
Ldt2; time 1500 s
  Nitrcoefin hydrolysis vs inhibitor (reaction curve reading): 0.045
Ldt2; time 1800 s
  Nitrcoefin hydrolysis vs inhibitor (reaction curve reading): 0.046
Ldt2; time 2100 s
  Nitrcoefin hydrolysis vs inhibitor (reaction curve reading): 0.046
Ldt2; time 2400 s
  Nitrcoefin hydrolysis vs inhibitor (reaction curve reading): 0.047
Ldt2; listed as DOR, 25 µM
  Ldt2 % inhibiton: 92.8305% and 93.0982%
Ldt3
  Ldt3 % inhibiton: 49.0108% and 45.9504%
Ldt3; time 0 s
  Nitrcoefin hydrolysis vs inhibitor (reaction curve reading): 0.045
Ldt3; time 300 s
  Nitrcoefin hydrolysis vs inhibitor (reaction curve reading): 0.046
Ldt3; time 600 s
  Nitrcoefin hydrolysis vs inhibitor (reaction curve reading): 0.048
Ldt3; time 900 s
  Nitrcoefin hydrolysis vs inhibitor (reaction curve reading): 0.049
Ldt3; time 1200 s
  Nitrcoefin hydrolysis vs inhibitor (reaction curve reading): 0.05
Ldt3; time 1500 s
  Nitrcoefin hydrolysis vs inhibitor (reaction curve reading): 0.051
Ldt3; time 1800 s
  Nitrcoefin hydrolysis vs inhibitor (reaction curve reading): 0.052
Ldt3; time 2100 s
  Nitrcoefin hydrolysis vs inhibitor (reaction curve reading): 0.052
Ldt3; time 2400 s
  Nitrcoefin hydrolysis vs inhibitor (reaction curve reading): 0.053
[1]
  MIC: 1 µg/mL (≈ 2.38 µM)

## C[C@@H](O)[C@H]1C(=O)N2C(C(=O)O)=C(SCCN=CN)C[C@H]12 [imipenem]
C. difficile PBP3
  PBP3 % inhibiton: 83.9601% and 87.3785% and 88.7659%
Ldt2; listed as IMI, 25 µM
  Ldt2 % inhibiton: 15.7605% and 16.7178%
[1]
  MIC: 128 µg/mL (≈ 428 µM)

## C[C@@H](O)[C@H]1C(=O)N2C(C(=O)O)=C(S[C@@H]3CN[C@H](C(=O)N(C)C)C3)[C@H](C)[C@H]12 [meropenem]
C. difficile PBP3
  PBP3 % inhibiton: 95.105% and 95.5466% and 97.2164%
Ldt2; 25 µM
  inhibition of Ldt2 (in words): best inhibitors of Ldt2
Ldt2; listed as MEM, 25 µM
  Ldt2 % inhibiton: 88.3495% and 88.0368%
Ldt3
  Ldt3 % inhibiton: 25.5396% and 27.8512%
[1]
  MIC: 4 µg/mL (≈ 10.4 µM)

## COc1cccc(OC)c1C(=O)N[C@@H]1C(=O)N2[C@@H]1SC(C)(C)[C@@H]2C(=O)O [methicillin]
C. difficile PBP3
  PBP3 % inhibiton: 92.4606% and 92.3713% and 94.0819%
[1]
  MIC: 8 µg/mL (≈ 21 µM)

## CC1(C)S[C@@H]2[C@H](NC(=O)Cc3ccccc3)C(=O)N2[C@H]1C(=O)O [penicillin G]
C. difficile PBP3
  PBP3 % inhibiton: 94.9098% and 94.1115% and 95.4645%
Ldt2; listed as EM, 25 µM
  Ldt2 % inhibiton: 2.091% and 5.675%
Ldt3
  Ldt3 % inhibiton: 58.9928% and 66.7769%
[1]
  MIC (X): 1
  MIC: 1 µg/mL (≈ 2.99 µM)

## CCN1CCN(C(=O)N[C@@H](C(=O)N[C@@H]2C(=O)N3[C@@H]2SC(C)(C)[C@@H]3C(=O)O)c2ccccc2)C(=O)C1=O [piperacillin]
C. difficile PBP3
  PBP3 % inhibiton: 92.03% and 94.7239% and 96.6236%
Ldt2; 25 µM
  inhibition of Ldt2 (in words): best inhibitors of Ldt2
Ldt2; listed as PIP, 25 µM
  Ldt2 % inhibiton: 57.879% and 59.7393%
Ldt3
  Ldt3 % inhibiton: 51.7086% and 57.3554%
[1]
  MIC: 16 µg/mL (≈ 30.9 µM)
